The conditions of data set [1]: form A, prior art references (EP1020454, US 7,361,676); cited from earlier work.
Data set [2] is described as follows: Solubility determination of form I and form A in methanol/water (1:1 v/v), UV-spectrophotometry at 314 nm. Format: physicochemical. The settings on record: MeOH/H2O 50%:50% v/v, 5 to 180 min, FIG. 8. How it is done:
25 mg of Febuxostat form I or form A, obtained according to the procedure described in EP1020454 were stirred in a mixture of 20 ml of methanol and water (1:1 v/v). 1 ml of the suspension was withdrawn from each suspension within a time range of 5 to 180 min with the aid of a volumetric pipette and filtered. The filtrate was diluted to 25 ml with a 50% (v/v) methanol/water mixture and the concentration was determined by UV-spectrophotometry at 314 nm (apparatus: Shimadzu UV 1800).
A calibration curve was determined based on a series of known concentrations in the same solvent system.

The nature of data set [3]: Polymorphic stability on storage. In kind it is physicochemical.
Data set [4] can be described thus: Water content according to Karl Fischer. As to conditions: stored at 20° C., ambient pressure, 0% up to 90% relative humidity. Format: physicochemical.
A short description of data set [5]: Kinetics of conversion to hemihydrate G in a mix of methanol and water. In kind it is physicochemical. The text has this:
The solvent system methanol/water represents a model for the dissolution of solid states of Febuxostat, with the hemihydrate G representing a thermodynamic very stable form with low solubility in aqueous systems.

Data set [6] can be described thus: Moisture sorption/desorption isotherm (SPS-11 moisture sorption analyzer). In kind it is physicochemical. As to conditions: for hygroscopicity: 0% to 90% RH, 25°C. How it is done:
The moisture sorption/desorption isotherms were recorded with a SPS-11 moisture sorption analyzer (MD Messtechnik, Ulm, D). […] The equilibrium condition for each step was set to a mass constancy of ±0.01% over 30 min. The temperature was 25±0.1° C.

Converted amounts (≈) assume the structure as drawn.

We go through four compounds from patent US8946441B2, “Polymorphs of an active pharmaceutical ingredient” (Sandoz AG, priority 2010, dated 2015).

For orientation: solubility means how much of the substance goes into solution per volume.

For the compound `Cc1nc(-c2ccc(OCC(C)C)c(C#N)c2)sc1C(=O)O` [form A, 2-(3-cyano-4-isobutyloxy-phenyl)-4-methyl-5-thiazolecarboxylic acid], the solubility in data set [1] is 220 µg/mL (≈ 695 µM).
Regarding `Cc1nc(-c2ccc(OCC(C)C)c(C#N)c2)sc1C(=O)O` [form I, 2-(3-cyano-4-isobutyloxy-phenyl)-4-methyl-5-thiazolecarboxylic acid], the “increase in solubility compared to form A” value in data set [2] was “approximately 20%”. For the same compound, the “polymorphic stability on storage” value in data set [3] (stress conditions, 40° C. for 3 months) is listed as “does not change its polymorphic state properties”. In addition, the “water content (KF)” value in data set [4] was “below 0.1%”. For the same compound, the “kinetics of conversion to hemihydrate G compared to anhydrate A” value in data set [5] is on record as “slower”. In addition, the hygroscopicity entry in data set [6] (listed as polymorph I) is “nonhygroscopic”.
For the compound `Cc1nc(-c2ccc(OCC(C)C)c(C#N)c2)sc1C(=O)O` [Form II, 2-(3-cyano-4-isobutyloxy-phenyl)-4-methyl-5-thiazolecarboxylic acid], the “polymorphic stability on storage” value in data set [3] (ambient temperature for 6 weeks) is on record as “does not convert to another polymorphic form”. The hygroscopicity entry in data set [6] is listed as “non hygroscopic”. Further, the water uptake result in data set [6] (up to a relative humidity of 90%) is reported as “no significant water uptake”.
`Cc1nc(-c2ccc(OCC(C)C)c(C#N)c2)sc1C(=O)O` [tert.-amylalcohol solvate, 2-(3-cyano-4-isobutyloxy-phenyl)-4-methyl-5-thiazolecarboxylic acid]: the stability on storage result in data set [3] (ambient conditions in open atmosphere for 5 weeks) is “stable”.
